Source: ChEMBL document CHEMBL1133394, “Novel C-ring analogues of 20(S)-camptothecin. Part 3: synthesis and their in vitro cytotoxicity of A-, B- and C-ring analogues” (Bioorg Med Chem Lett, 2000)

How the values were obtained:
SF-268 = assay: Tested in vitro for cytotoxicity against human tumor cell line SF-268 (CNS).; type: functional
UACC-62 = assay: Tested in vitro for cytotoxicity against human tumor cell line UACC 62 (melanoma); type: functional
DU-145 [1] = assay: Tested in vitro for cytotoxicity against human tumor cell line DU-145 (prostate); type: functional
OVCAR-8 = assay: Tested in vitro for cytotoxicity against human tumor cell line OVCAR8 (ovarian).; type: functional
ACHN [2] = assay: Tested in vitro for cytotoxicity against human tumor cell line ACHN (renal).; type: functional
HOP-62 = assay: Tested in vitro for cytotoxicity against human tumor cell line HOP62 (lung); type: functional
NCI/ADR-RES = assay: Tested in vitro for cytotoxicity against human tumor cell line MCF-7/ADR (breast); type: functional
[3] = system: Panel (56 tumour cell lines); assay: Tested in vitro for cytotoxicity against 56 human tumor cell lines; type: functional, cell-based
DU-145 [4] = assay: The compound was tested in vitro for cytotoxicity against human tumor cell line DU-145 (prostate); type: functional
ACHN [5] = assay: The compound was tested in vitro for cytotoxicity against human tumor cell line ACHN (renal).; type: functional
NCI-H23 [6] = assay: (§1) The compound (200 mg/kg) administered intravenously was tested for antitumor activity against NCI-H23 (lung) xenograft model in mice; type: functional, Mus musculus
Mus musculus [7] = assay: The compound (134 mg/kg) administered intravenously was tested for antitumor activity against A-498 (renal) xenograft model in mice; type: functional
NCI-H23 [8] = assay: (§2) The compound (90 mg/kg) administered intravenously was tested for antitumor activity against NCI-H23 (lung) xenograft model in mice; type: functional, Mus musculus
Mus musculus [9] = assay: The compound (200 mg/kg) administered intravenously was tested for antitumor activity against DU-145 (prostate) xenograft model in mice; type: functional, Prostate gland
NCI-H23 [10] = assay: (§3) The compound (134 mg/kg) administered intravenously was tested for antitumor activity against NCI-H23 (lung) xenograft model in mice; type: functional, Mus musculus
Mus musculus [11] = assay: The compound (90 mg/kg) administered intravenously was tested for antitumor activity against A-498 (renal) xenograft model in mice; type: functional
Mus musculus [12] = assay: The compound (90 mg/kg) administered intravenously was tested for antitumor activity against DU-145 (prostate) xenograft model in mice; type: functional, Prostate gland
Mus musculus [13] = assay: The compound (134 mg/kg) administered intravenously was tested for antitumor activity against DU-145 (prostate) xenograft model in mice; type: functional, Prostate gland
Mus musculus [14] = assay: The compound (200 mg/kg) administered intravenously was tested for antitumor activity against A-498 (renal) xenograft model in mice; type: functional
Mus musculus [15] = assay: as §2; type: functional
Mus musculus [16] = assay: as §3; type: functional
Mus musculus [17] = assay: as §1; type: functional
Mus musculus [18] = assay: The compound (10 mg/kg) administered intravenously was tested for antitumor activity against A-498 (renal) xenograft model in mice; type: functional
Mus musculus [19] = assay: The compound (2.5 mg/kg) administered intravenously was tested for antitumor activity against A-498 (renal) xenograft model in mice; type: functional
Mus musculus [20] = assay: The compound (5 mg/kg) administered intravenously was tested for antitumor activity against A-498 (renal) xenograft model in mice; type: functional
NCI-H23 [21] = assay: The compound (10 mg/kg) administered intravenously was tested for antitumor activity against NCI-H23 (lung) xenograft model in mice; type: functional, Mus musculus
NCI-H23 [22] = assay: The compound (5 mg/kg) administered intravenously was tested for antitumor activity against NCI-H23 (lung) xenograft model in mice; type: functional, Mus musculus
Mus musculus [23] = assay: The compound (10 mg/kg) administered intravenously was tested for antitumor activity against DU-145 (prostate) xenograft model in mice; type: functional, Prostate gland
Mus musculus [24] = assay: The compound (2.5 mg/kg) administered intravenously was tested for antitumor activity against DU-145 (prostate) xenograft model in mice; type: functional, Prostate gland
Mus musculus [25] = assay: The compound (5 mg/kg) administered intravenously was tested for antitumor activity against DU-145 (prostate) xenograft model in mice; type: functional, Prostate gland
NCI-H23 [26] = assay: The compound (2.5 mg/kg) administered intravenously was tested for antitumor activity against NCI-H23 (lung) xenograft model in mice; type: functional, Mus musculus

Row | SMILES | GI50 (SF-268) [nM] | GI50 (UACC-62) [nM] | GI50 (DU-145 [1]) [nM] | GI50 (OVCAR-8) [nM] | GI50 (ACHN [2]) [nM] | GI50 (HOP-62) [nM] | GI50 (NCI/ADR-RES) [nM] | IC50 [3] [nM] | also measured
1 | CC[C@@]1(O)C(=O)OCc2c1cc1n(c2=O)C(OCCO)c2cc3cc(O)ccc3nc2-1 (some centres undefined) | 2100 | 2120 | 3260 | 2520 | 3400 | 2440 | – | – | –
2 | CCc1c2c(nc3cccc(OC)c13)-c1cc3c(c(=O)n1C2OCCF)COC(=O)[C@]3(O)CC (some centres undefined) | 1890 | 2020 | 790 | 1920 | 1060 | 1220 | 1990 | – | –
3 | CCc1c2c(nc3cccc(OC)c13)-c1cc3c(c(=O)n1C2OCCOC)COC(=O)[C@]3(O)CC (some centres undefined) | 590 | 2540 | 1140 | 850 | 520 | 660 | 510 | – | –
4 | CC[C@@]1(O)C(=O)OCc2c1cc1n(c2=O)C(OCCF)c2cc3cc(O)ccc3nc2-1 (some centres undefined) | 20000 | 10000 | 250 | 4500 | 500 | 10000 | 4000 | – | –
5 | CCc1c2c(nc3cccc(OC)c13)-c1cc3c(c(=O)n1C2OCCO)COC(=O)[C@]3(O)CC (some centres undefined) | 1100 | – | 5020 | 8400 | 3820 | 6470 | 5530 | – | –
6 | CCOC1c2c(nc3cccc(OC)c3c2CC)-c2cc3c(c(=O)n21)COC(=O)[C@]3(O)CC (some centres undefined) | – | – | – | – | – | – | – | 5370 | –
7 | CC[C@@]1(O)C(=O)OCc2c1cc1n(c2=O)C(OCC(F)(F)F)c2cc3c([N+](=O)[O-])cccc3nc2-1 (some centres undefined) | 90 | 160 | 60 | 130 | 20 | 500 | 70 | – | –
8 | CCc1c2c(nc3ccc(O)cc13)-c1cc3c(c(=O)n1C2OCC(F)(F)F)COC(=O)[C@]3(O)CC (some centres undefined) | 2000 | 70 | 1000 | 500 | 400 | 2000 | 400 | – | –
9 | CC[C@@]1(O)C(=O)OCc2c1cc1n(c2=O)C(OCCOC)c2cc3cc(O)ccc3nc2-1 (some centres undefined) | 5000 | 520 | 680 | 4500 | 1200 | 4000 | < 10 | – | –
10 | CCOC1c2c(nc3ccc(O)cc3c2CC)-c2cc3c(c(=O)n21)COC(=O)[C@]3(O)CC (some centres undefined) | – | – | – | – | – | – | – | 5000 | –
11 | CC[C@@]1(O)C(=O)OCc2c1cc1n(c2=O)C(OCCO)c2cc3c([N+](=O)[O-])cccc3nc2-1 (some centres undefined) | 4660 | 2460 | 4130 | 7140 | 3360 | 2450 | – | – | –
12 | CCOC1c2cc3cccc([N+](=O)[O-])c3nc2-c2cc3c(c(=O)n21)COC(=O)[C@]3(O)CC (some centres undefined) | – | – | – | – | – | – | – | > 30000 | –
13 | CC[C@@]1(O)C(=O)OCc2c1cc1n(c2=O)C(OCCOC)c2cc3c([N+](=O)[O-])cccc3nc2-1 (some centres undefined) | 1000 | 470 | – | 970 | – | 400 | – | – | GI50 (DU-145 [4]): 440 nM; GI50 (ACHN [5]): 430 nM
14 | CCc1c2c(nc3cccc(OC)c13)-c1cc3c(c(=O)n1C2OCC(F)(F)F)COC(=O)[C@]3(O)CC (some centres undefined) | 2130 | 4680 | 3900 | 2630 | 2830 | 1580 | 1840 | – | –
15 | CCOC1c2cc3c([N+](=O)[O-])cccc3nc2-c2cc3c(c(=O)n21)COC(=O)[C@]3(O)CC (some centres undefined) | – | – | – | – | – | – | – | 27500 | –
16 | CCc1c2c(nc3ccc(O)cc13)-c1cc3c(c(=O)n1C2OCCOC)COC(=O)[C@]3(O)CC (some centres undefined) | > 30000 | 600 | 550 | 100 | 600 | 20000 | 200 | – | –
17 | CC[C@@]1(O)C(=O)OCc2c1cc1n(c2=O)C(OCC(F)(F)F)c2cc3cc(O)ccc3nc2-1 (some centres undefined) | 30 | 100 | 100 | 260 | 100 | 60 | 200 | – | T-C/C (NCI-H23 [6]): 58%; T-C/C (Mus musculus [7]): 46%; T-C/C (NCI-H23 [8]): 12%; T-C/C (Mus musculus [9]): 21%; T-C/C (NCI-H23 [10]): 58%; T-C/C (Mus musculus [11]): 46%; T-C/C (Mus musculus [12]): 8%; T-C/C (Mus musculus [13]): 4%; T-C/C (Mus musculus [14]): 27%
18 | CCOC1c2cc3c(O)cccc3nc2-c2cc3c(c(=O)n21)COC(=O)[C@]3(O)CC (some centres undefined) | – | – | – | – | – | – | – | 200 | T-C/C (Mus musculus [7]): 8%; T-C/C (Mus musculus [15]): 8%; T-C/C (Mus musculus [9]): 33%; T-C/C (Mus musculus [11]): 23%; T-C/C (Mus musculus [12]): 9%; T-C/C (Mus musculus [16]): 15%; T-C/C (Mus musculus [13]): 27%; T-C/C (Mus musculus [14]): 6%; T-C/C (Mus musculus [17]): 12%
19 | CCOC1c2cc3cc(O)ccc3nc2-c2cc3c(c(=O)n21)COC(=O)[C@]3(O)CC (some centres undefined) | – | – | – | – | – | – | – | 2880 | –
20 | CCc1c2c(nc3ccc(O)cc13)-c1cc3c(c(=O)n1C2OCCF)COC(=O)[C@]3(O)CC (some centres undefined) | > 30000 | 1000 | 1000 | 500 | 8000 | 25000 | 100 | – | –
21 | CC[C@@]1(O)C(=O)OCc2c1cc1n(c2=O)C(OCCF)c2cc3c([N+](=O)[O-])cccc3nc2-1 (some centres undefined) | 310 | 400 | 630 | 740 | 250 | 360 | 200 | – | –
22 | CCOC1c2c(nc3cccc(O)c3c2CC)-c2cc3c(c(=O)n21)COC(=O)[C@]3(O)CC (some centres undefined) | – | – | – | – | – | – | – | 4670 | –
23 | CC[C@@]1(O)C(=O)OCc2c1cc1n(c2=O)Cc2cc3ccccc3nc2-1 [CAMPTOTHECIN] | – | – | – | – | – | – | – | 40 | –
24 | CC[C@@]1(O)C(=O)OCc2c1cc1n(c2=O)Cc2cc3c(CN(C)C)c(O)ccc3nc2-1 [TOPOTECAN] | 80 | 30 | 40 | 200 | 40 | 50 | 70 | 160 | T-C/C (Mus musculus [18]): 47%; T-C/C (Mus musculus [19]): 11%; T-C/C (Mus musculus [20]): 67%; T-C/C (NCI-H23 [21]): 60%; T-C/C (NCI-H23 [22]): 6%; T-C/C (Mus musculus [23]): 339%; T-C/C (Mus musculus [24]): 83%; T-C/C (Mus musculus [25]): 35%; T-C/C (NCI-H23 [26]): 10%
